Earlier results on one compound are cited in patent publication US6515019B2, “Methods of providing symptomatic and prophylactic treatment for medical and neurological conditions” (priority 1996, dated 2003).

For data set [1] the following is noted: add-on therapy in partial epilepsy in children (Carmant J., Pediatr 125:481-486, 1994).
Data set [2] relates to neuronal cell death. The settings on record: administered post-hoc; animal models of ischemia (Wasterlain 1993; Shuaib 1996; Wasterlain 1996).
For data set [3] the following is noted: patients on felbamate monotherapy (Faught E., Neurology 43:688-692, 1993).

In the case of `NC(=O)OCC(COC(N)=O)c1ccccc1` [Felbamate, 2-phenyl-1,3-propanediol dicarbamate], the weight loss course result in data set [1] was “transient and returned to normal after twenty weeks”. For the same compound, the “prevention of neuronal cell death” value in data set [2] was “effective in preventing neuronal cell death”. Besides, in data set [3], the Weight loss is given as 4-5%.
